# How the values were obtained:
# [1] = tested on: T48 cells; test: Fluorescent apoptotic assay (Staurosporine, MR(DEVD)2) in TrkB stably transfected T48 cells; assay type: cell-based, murine
# Source text: Create and test reporter cell lines. In order to identify small molecules that mimic BDNF and activate TrkB, TrkB stably transfected murine cell lines were created. The T48 and T62 cell lines were created by transfecting basal forebrain SN56 cells, which express negligible TrkB, with a TrkB expression construct. […] To test resistance to apoptosis, SN56 cells and the T48 cell line were either untreated or treated with BDNF, and then subjected to an apoptotic assay. Briefly, the cells were treated with 0.75 μM Staurosporine for 9 hours, and 1 hour before the termination of the experiment, the cells were treated with 10 μM MR (DEVD)2. The cells were then fixed with 4% paraformaldehyde for 15 minutes, washed with phosphate buffered saline (PBS), and incubated with Hoechst 33342 for 10 minutes. Cover slides were washed with PBS, mounted, and the cells were examined using a fluorescent microscope to see which cells turned red upon caspase cleavage.
# Cell-based screen. To screen a large number of chemicals, a cell-based apoptic assay was developed using a cell permeable fluorescent dye, MR (DEVD)2, which turns red upon caspase cleavage in apoptotic cells. SN56 and T48 cells were plated at 10,000 cells per well in multiple 96-well plates and exposed to 2000 biologically active compounds from the Spectrum Collection Library for 30 minutes at a concentration of 10 μM in DMSO. Following exposure to the compounds, the cells were subjected to the developed fluorescent apoptotic assay described above (method schematically shown in FIG. 2).
# In the initial screen, 5 of the 66 positive compounds were flavone derivatives or similar compounds. […] To compare the apoptosis inhibitory activity, the flavone derivatives were preincubated with SN56 and T48 cells, and subsequently were subjected to the fluorescent apoptotic assay as described above. […] Additionally, the effective concentration at which 50% (EC50) of the cells are protected from apoptosis was determined for 7,8-dihydroxyflavone, Cianidanol, Pinocembrin and Diosmetin.
# [2] = tested on: Akt; test: Western analysis of Akt phosphorylation in hippocampal neurons; assay type: cell-based
# Description: To further examine whether 7,8-dihydroxyflavone can stimulate TrkB-mediated downstream signaling cascades, Western analysis was performed.
# To probe the time course of 7,8-dihydroxyflavone triggered TrkB activation, hippocampal neurons were treated with 7,8-dihydroxyflavone at 500 nM and phosphorylation of Erk and Akt was determined over time by Western analysis. […] Stimulation of Erk and Akt by 7,8-dihydroxyflavone also occurred in a dose dependent manner.
# [3] = biological target: T1, TrkB F616A (Mus musculus, UniProt P15209, F616A); test: TrkB phosphorylation in cortical neurons from TrkB F616A knockin mice; assay type: cell-based; conditions: 0.5 μM, 30 minutes, FIG. 23
# T1 construct: endogenous in cells; host or cells: cortical neurons of TrkB F616A knock-in mice
# T1 sequence (P15209 32-821 F616A): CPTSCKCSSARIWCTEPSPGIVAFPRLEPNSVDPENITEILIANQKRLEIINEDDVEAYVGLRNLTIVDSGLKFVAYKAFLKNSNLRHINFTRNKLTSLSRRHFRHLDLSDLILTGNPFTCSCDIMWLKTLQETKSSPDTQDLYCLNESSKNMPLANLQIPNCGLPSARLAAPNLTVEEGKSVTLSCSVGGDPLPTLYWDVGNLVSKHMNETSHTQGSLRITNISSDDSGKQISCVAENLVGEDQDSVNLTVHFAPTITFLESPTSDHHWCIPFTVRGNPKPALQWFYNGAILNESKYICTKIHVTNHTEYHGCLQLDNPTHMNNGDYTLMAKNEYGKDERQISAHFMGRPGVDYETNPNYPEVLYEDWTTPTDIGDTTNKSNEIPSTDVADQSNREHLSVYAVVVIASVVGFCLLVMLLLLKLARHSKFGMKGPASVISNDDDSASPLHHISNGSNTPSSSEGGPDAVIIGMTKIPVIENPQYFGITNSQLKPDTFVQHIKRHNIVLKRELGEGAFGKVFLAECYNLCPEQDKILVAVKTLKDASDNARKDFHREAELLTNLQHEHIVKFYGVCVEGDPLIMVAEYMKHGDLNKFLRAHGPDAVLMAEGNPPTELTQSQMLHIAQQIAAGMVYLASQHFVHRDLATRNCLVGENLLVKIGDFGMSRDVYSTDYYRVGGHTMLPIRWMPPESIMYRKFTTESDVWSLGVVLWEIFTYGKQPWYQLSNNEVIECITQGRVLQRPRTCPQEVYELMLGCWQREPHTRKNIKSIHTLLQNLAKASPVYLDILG
# Description: To explore whether the neuroprotective action of 7,8-dihydroxyflavone is dependent on TrkB activation in vivo, TrkB F616A knockin mice were used. […] To further assess whether 7,8-dihydroxyflavone can mimic BDNF, cortical neurons were prepared from TrkB F616A knockin mice. The cortical neurons were pretreated for 30 minutes with either K252a Trk tyrosine kinase inhibitor (100 nM) or 1NMPP1 inhibitor (100 nM) followed by 0.5 μM 7,8-dihydroxyflavone for 30 minutes.
# [4] = tested on: KA-provoked apoptosis; test: KA-provoked neuronal cell death in TrkB F616A knockin mice, intraperitoneal (caspase-3 immunoblot); assay type: in vivo
# Description: To determine if 1NMPP1 would make neurons treated with 7,8-dihydroxyflavone vulnerable to KA-provoked neuronal cell death, TrkF616A knockin mice were fed with 1NMPP1 (25 mM) in drinking water one day prior to pharmacological reagent treatment. The next day, the mice were intraperitoneally injected with KA (25 mg/kg), or 7,8-dihydroxyflavone (5 mg/kg) 4 hours prior to KA injection. The control mice were injected with either KA or 7,8-dihydroxyflavone alone, or the mice were administered 7,8-dihydroxyflavone 4 hours before KA. In 4 days, the mice were sacrificed and the brains were homogenated and ultracentrifuged. The supernatant was employed for SDS-PAGE and immunoblotting analysis.
# [5] = tested on: caspase-3 activation; test: Active caspase-3 ELISA in glutamate-treated cortical neurons; assay type: cell-based, rat; conditions: 50 nM or higher concentrations, 50 μM glutamate for 16 hours, FIG. 29
# Description: To quantitatively compare the anti-apoptotic activity of 7,8-DHF and 4′-DMA-7,8-DHF, cortical neurons were prepared from E16 rat embryonic cells and pretreated with various indicated concentrations of 4′-DMA-7,8-DHF and 7,8-DHF for 30 min, followed by 50 μM glutamate for 16 hours. The cell lysates were quantitatively analyzed with an active caspse-3 ELISA.
# [6] = biological target: T2, TrkA (Mus musculus, UniProt Q3UFB7); test: Trk activation in wild-type and TrkC knockout cortical neurons: TrkA; assay type: cell-based, mice; parameters: from tissue; host or cells: mouse brain; conditions: FIG. 22
# T2 sequence (Q3UFB7 34-799): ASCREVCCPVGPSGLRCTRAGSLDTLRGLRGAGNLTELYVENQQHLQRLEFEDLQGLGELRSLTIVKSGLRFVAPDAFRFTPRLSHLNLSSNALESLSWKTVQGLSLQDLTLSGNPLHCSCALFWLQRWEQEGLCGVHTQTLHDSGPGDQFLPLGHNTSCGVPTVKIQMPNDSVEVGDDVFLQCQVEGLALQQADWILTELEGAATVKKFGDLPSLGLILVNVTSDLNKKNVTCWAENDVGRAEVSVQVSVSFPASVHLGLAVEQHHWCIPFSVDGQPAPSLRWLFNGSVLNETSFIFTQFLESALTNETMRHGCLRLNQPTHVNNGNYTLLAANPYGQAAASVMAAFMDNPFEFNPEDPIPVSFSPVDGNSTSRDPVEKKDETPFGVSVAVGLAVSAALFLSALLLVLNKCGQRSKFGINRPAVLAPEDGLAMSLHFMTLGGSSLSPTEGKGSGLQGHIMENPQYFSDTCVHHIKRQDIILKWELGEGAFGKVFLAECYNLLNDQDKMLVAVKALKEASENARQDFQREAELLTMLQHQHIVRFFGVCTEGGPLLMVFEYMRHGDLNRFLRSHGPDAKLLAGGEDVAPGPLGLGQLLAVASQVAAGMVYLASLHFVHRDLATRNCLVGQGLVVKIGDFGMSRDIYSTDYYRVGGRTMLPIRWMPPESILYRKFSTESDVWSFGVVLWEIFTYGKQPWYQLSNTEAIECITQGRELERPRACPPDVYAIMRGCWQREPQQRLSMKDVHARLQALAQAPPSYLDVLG
# Description: To further assess whether 7,8-dihydroxyflavone blocks neuronal apoptosis in a TrkB dependent manner, cortical neurons were prepared from homozygous pups of TrkC+/−mice, which were mated to the same genotype. […] Glutamate weakly stimulated both TrkA and TrkB faint phosphorylation regardless of TrkC genotype (FIG. 22, rows 1 and 3). The spontaneous caspase-3 activation in TrkC−/− neurons was suppressed by 7,8-dihydroxyflavone (FIG. 22, row 5).
# [7] = biological target: T2, TrkA; test: Immunoblotting of brain lysates from forced swim test mice: TrkA; assay type: in vivo; parameters: from tissue; host or cells: mouse brain; conditions: 5 mg/kg, 21 days oral, anti-p-TrkA 794, FIG. 35
# Description: To explore whether 4′-DMA-7,8-DHF and 7,8-DHF have any antidepressant effect, a forced swim test (6 minutes, immobility recorded in the last 4 minutes) was conducted after chronic treatment of male C57BL/6J mice (8 mice/group) for 21 days via oral injection.
smiles,measurement,setting,value
"O=c1cc(-c2ccccc2)oc2c(O)c(O)ccc12 [7,8-dihydroxyflavone]",EC50,"[1]; Mus musculus, read-out: effective concentration at which 50% (EC50) of the cells are protected from apoptosis",35 nM
same,suppression of apoptosis in T48 cell line,"[1]; Staurosporine-induced apoptosis, FIG. 1B and FIG. 4",strongly suppressed apoptosis
same,time at which Akt phosphorylation peaked,[2]; 500 nM,30 min
same,time at which Akt phosphorylation was seen,[2]; 500 nM,10 min
same,time by which Akt phosphorylation faded,[2]; 500 nM,180 min
same,Akt activation (Western),[2]; FIG. 9,activated
same,concentration at which Akt activation was observed,[2]; treatment for 30 minutes,100 nm
same,activation of TrkB F616A,[3],selectively activates TrkB F616A
same,KA-provoked apoptosis,[4]; 5 mg/kg intraperitoneally 4 hours prior to KA (25 mg/kg),suppressed KA-provoked apoptosis
same,protective effect against KA after 1NMPP1 pretreatment,[4]; 1NMPP1 in drinking water one day prior,abolished
same,"apoptosis in TrkB F616A mice, treatment alone without KA",[4]; FIG. 24,no effect on apoptosis
same,Glutamate-provoked caspase-3 activation,[5],substantially blocked
same,TrkA activation in wild-type and TrkC knockout neurons,[6],not TrkA activation
same,TrkA activation in mouse brain,[7],not TrkA activation

# Source: patent publication US9895344B2, “Treating various disorders with 7,8-dihydroxyflavone and derivatives thereof” (EMORY UNIVERSITY, priority 2008, dated 2018)
